Test results taken from patent publication US10315990B2, “Isothiocyanate compounds and isothiocyanate XPO1 protein inhibitor drugs thereof” (DRIVINGFORCE THERAPEUTICS Co., Ltd., priority 2015, dated 2019).

Tests used:
IBD animal model = test: Macroscopic pathological changes of IBD animal model (enteroclysis with TNBS); format: in vivo, SD rats; settings: TNBS rats
Procedure, shortened: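 Male SD rats, eight weeks old (10 per group), given rectal TNBS in 50% ethanol at 100 mg/kg 5 cm from anus; controls received saline. Drug treatment for two weeks, then rectum photographed, weighed and scored macroscopically for ulceration and bleeding.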

NCI-H1650 = test: cells; format: cell-based; settings: Homo sapiens; NCI-H1650, 72 hours; read-out: IC50
NCI-H1975 = test: cells; format: cell-based; settings: Homo sapiens; NCI-H1975, 72 hours; read-out: IC50
Panc-1 = test: Inhibitory activity for other high metastasis type cancer cell line (MTT or CCK-8); format: cell-based; settings: Homo sapiens; Panc-1, 72 hours; read-out: IC50
KYSE-70 = test: as above; format: cell-based; settings: Homo sapiens; KYSE-70, 72 hours; read-out: IC50

C[S+]([O-])CCCCN=C=S (stereo not drawn) [SFN, sulforaphane, reference compound]
Macroscopic pathological score (IBD animal model; 80 mg/kg intragastrically daily, score 0-5, 10 animals): 4.0 ± 0.5 | colon tissue bleeding and ulceration phenomena (in words) (IBD animal model; 80 mg/kg): small relief extent | IC50 (NCI-H1650): 18.1 µM | IC50 (NCI-H1975): 20.3 µM | IC50 (Panc-1): 12.1 µM | IC50 (KYSE-70): 11.3 µM
